Assay results taken from patent US6159934A, “Use of GHRH-RP to stimulate stem cell factor production” (Indiana University Foundation, priority 1996, dated 2000).

Columns and labels:
[1] = test system: stem cell factor (SCF) gene expression in Sertoli cells; experiment: Northern blot analysis of SCF gene expression in cultured Sertoli cells; assay type: cell-based; details: 16 hours, rat Sertoli cells, actin as control
Method: As indicated above, it has been discovered that GHRH-RP has a unique testicular action. GHRH-RP specifically activated SVF in Sertoli cells as described in Example 3 below. […] Northern gel analysis of 10 μg of total Sertoli cell RNA was performed and the blot probed for SCF, transferrin, androgen binding protein (ABP), α-inhibin and γ-actin as control. B. Bloch, A. Baird, N. Ling, R. Guillemin, Endocrinology 118, 156 (1986). Stimulation of SCF expression is 12 fold over control at 10 nM and 16 fold at 100 nM concentrations of GHRH-RP. GHRH (10 nM) stimulated stem cell factor gene expression 3 fold over control. […] Other Sertoli cell specific transcripts including transferrin, ABP and α-inhibin were note regulated by GHRH-RP (FIG. 6). Although a functional GHRH receptor has been identified in Sertoli cells (R. S. Johnson, B. M. Spiegelman, V. Papaioannou, Cell 71, 577 (1992); K. M. Zsebo et al., Cell 63, 213 (1990); E. Huang et al., Cell 63, 225), the GHRH-RP stimulation of stem cell factor expression may not be mediated through this receptor. […] Briefly, shown in FIG. 6 are the results of experiments in which rat Sertoli cells, isolated and cultured for 4 days were incubated with GHRH-RP (100 nM), GHRH (100 nM), FSH (0.0275 U/ml) or control media for 30 minutes at 37° C. The cells were then assayed for cAMP production by 125 I cAMP Radioimmunoassay. C. H. Srivastava, J. D. Fleck, A. M. Meyers, S. A. Berry, O. H. Pescovitz, "Distribution of Growth Hormone Releasing Hormone-Like (HRH-LI) mRNA and Immunoreactivity in Rat Tissues" (Abstract), The Endocrine Society, 73rd Annual Endocrine Society, Washington, D.C. (1991). Adenylate cyclase stimulation is measured as fold stimulation of control. Each bar is representative of five separate experiments.
(§1) Sprague-Dawley rats (20-22 day old) were obtained from Harlan Labs (Indianapolis, IN). […] Cell purity was monitored by phase contrast microscopy and by comparative reverse transcription-polymerase chain reaction (RT-PCR) amplification. […]

[2] = test system: transferrin gene expression in Sertoli cells; experiment: Northern blot analysis of transferrin gene expression in cultured Sertoli cells; assay type: cell-based; details: GHRH-RP 10 nM and 100 nM, GHRH 10 nM, 16 hours, rat Sertoli cells
Method: (§2) As indicated above, it has been discovered that GHRH-RP has a unique testicular action. GHRH-RP specifically activated SVF in Sertoli cells as described in Example 3 below. […] Northern gel analysis of 10 μg of total Sertoli cell RNA was performed and the blot probed for SCF, transferrin, androgen binding protein (ABP), α-inhibin and γ-actin as control. B. Bloch, A. Baird, N. Ling, R. Guillemin, Endocrinology 118, 156 (1986). Stimulation of SCF expression is 12 fold over control at 10 nM and 16 fold at 100 nM concentrations of GHRH-RP. GHRH (10 nM) stimulated stem cell factor gene expression 3 fold over control. […] Other Sertoli cell specific transcripts including transferrin, ABP and α-inhibin were note regulated by GHRH-RP (FIG. 6). Although a functional GHRH receptor has been identified in Sertoli cells (R. S. Johnson, B. M. Spiegelman, V. Papaioannou, Cell 71, 577 (1992); K. M. Zsebo et al., Cell 63, 213 (1990); E. Huang et al., Cell 63, 225), the GHRH-RP stimulation of stem cell factor expression may not be mediated through this receptor. […] Adenylate cyclase stimulation is measured as fold stimulation of control. […]
as §1

[3] = test system: androgen binding protein (ABP) gene expression in Sertoli cells; experiment: Northern blot analysis of androgen binding protein (ABP) gene expression in cultured Sertoli cells; assay type: cell-based; details: GHRH-RP 10 nM and 100 nM, GHRH 10 nM, 16 hours, rat Sertoli cells
Method: as §2, §1

[4] = test system: α-inhibin gene expression in Sertoli cells; experiment: Northern blot analysis of α-inhibin gene expression in cultured Sertoli cells; assay type: cell-based; details: GHRH-RP 10 nM and 100 nM, GHRH 10 nM, 16 hours, rat Sertoli cells
Method: as §2, §1

[5] = test system: adenylate cyclase in cultured Sertoli cells; experiment: cAMP production (125I cAMP radioimmunoassay) in cultured Sertoli cells; assay type: cell-based; details: 100 nM, 30 minutes at 37° C., rat Sertoli cells day 4 of culture
Method: As indicated above, it has been discovered that GHRH-RP has a unique testicular action. GHRH-RP specifically activated SVF in Sertoli cells as described in Example 3 below. […] Northern gel analysis of 10 μg of total Sertoli cell RNA was performed and the blot probed for SCF, transferrin, androgen binding protein (ABP), α-inhibin and γ-actin as control. B. Bloch, A. Baird, N. Ling, R. Guillemin, Endocrinology 118, 156 (1986). Stimulation of SCF expression is 12 fold over control at 10 nM and 16 fold at 100 nM concentrations of GHRH-RP. GHRH (10 nM) stimulated stem cell factor gene expression 3 fold over control. […] Other Sertoli cell specific transcripts including transferrin, ABP and α-inhibin were note regulated by GHRH-RP (FIG. 6). Although a functional GHRH receptor has been identified in Sertoli cells (R. S. Johnson, B. M. Spiegelman, V. Papaioannou, Cell 71, 577 (1992); K. M. Zsebo et al., Cell 63, 213 (1990); E. Huang et al., Cell 63, 225), the GHRH-RP stimulation of stem cell factor expression may not be mediated through this receptor. […] Briefly, shown in FIG. 6 are the results of experiments in which rat Sertoli cells, isolated and cultured for 4 days were incubated with GHRH-RP (100 nM), GHRH (100 nM), FSH (0.0275 U/ml) or control media for 30 minutes at 37° C. […] Adenylate cyclase stimulation is measured as fold stimulation of control. […]

[6] = test system: stem cell factor (SCF) gene expression in Sertoli cells; details: treatment of cultured Sertoli cells; Srivastava et al., Endocrinology 133, 1478 (1993); cited from earlier work
[7] = test system: Sertoli cell c-fos gene expression; details: treatment of cultured Sertoli cells; Srivastava et al., Endocrinology 133, 1478 (1993); cited from earlier work

Substance	Stimulation of SCF expression ([1]; 10 nM) [fold over control]	Stimulation of SCF expression ([1]; 100 nM) [fold]	stimulation of transferrin gene expression over control [2]	stimulation of ABP gene expression over control [3]	stimulation of α-inhibin gene expression over control [4]	Adenylate cyclase stimulation (cAMP production) [5]	Sertoli cell stem cell factor gene expression [6]	Sertoli cell c-fos gene expression [7]
GHRH-RP: 30 amino acid C-terminal peptide of the GHRH precursor; rat peptide synthesized from the deduced amino acid sequence (amino acids 74-104) (HLDRVWAEDKQMALESILQGFPRMKLSAEA)	12	16	no stimulation	no stimulation	no stimulation	does not stimulate increases		
GHRH: mature 43 amino acid rat GHRH peptide, hypothalamic factor that stimulates release of pituitary growth hormone (HADAIFTSSYRRILGQLYARKLLHEIMNRQQGERNQEQRSRFN)	3		no stimulation	no stimulation	no stimulation		activates	activates
